Test results taken from ChEMBL document CHEMBL3853264 (Medchemcomm, 2016).

Target: T1, Solute carrier family 22 member 12 (Homo sapiens, UniProt Q96S37)
T1 sequence (Q96S37 whole entry): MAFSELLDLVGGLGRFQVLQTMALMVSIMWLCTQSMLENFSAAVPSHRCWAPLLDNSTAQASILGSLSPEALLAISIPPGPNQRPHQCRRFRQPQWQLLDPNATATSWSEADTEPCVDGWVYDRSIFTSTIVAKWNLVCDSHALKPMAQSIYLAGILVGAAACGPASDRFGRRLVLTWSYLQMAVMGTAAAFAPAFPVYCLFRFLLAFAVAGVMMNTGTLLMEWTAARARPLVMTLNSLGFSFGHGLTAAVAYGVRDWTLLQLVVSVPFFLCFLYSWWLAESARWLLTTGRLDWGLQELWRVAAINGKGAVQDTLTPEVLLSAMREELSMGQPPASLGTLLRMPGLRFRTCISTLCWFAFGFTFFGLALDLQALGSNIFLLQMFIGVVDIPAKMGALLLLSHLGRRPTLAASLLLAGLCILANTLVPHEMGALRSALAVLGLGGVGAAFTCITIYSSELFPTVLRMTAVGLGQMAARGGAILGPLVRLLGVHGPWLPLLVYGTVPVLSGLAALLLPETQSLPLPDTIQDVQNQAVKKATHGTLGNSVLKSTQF
Test: Inhibition of human C-terminal eGFP-tagged URAT1 long isoform expressed in CHO cells assessed as decrease in [14C]-uric acid uptake preincubated for 15 mins followed by [14C]-uric acid addition and incubated in dark for 3 hrs by scintillation counting method
Format: cell-based

Row | IC50 | Structure (SMILES)
1 | 395 nM | N#Cc1ccc(Oc2ccc(S(=O)(=O)Nc3cccnc3)cc2C#N)cc1Cl
2 | 382 nM | N#Cc1ccc(Oc2ccc(S(=O)(=O)Nc3ccc(F)cn3)cc2F)cc1F
